Numbered stars: 1 amine (or outer) side, 2 acyl side, 3 side chain; on linkers, the order of the positions; unused ones are H or OH. Bridge positions count the residues as written; N and C are the ends. Square brackets hold non-standard residues; d marks the D form. Peptide text beside a SMILES is read from it. Trp(βS-Me,7-OMe) = COc1cccc2c([C@H](C)[C@H](N)C(=O)O)c[nH]c12; X5 = COc1cccc2[nH]cc([C@H](C)[C@H](N[*:1])C(=O)[*:2])c12; Trp(βS-Me) = C[C@@H](c1c[nH]c2ccccc12)[C@H](N)C(=O)O; Phe(4-CH2COOH) = N[C@@H](Cc1ccc(CC(=O)O)cc1)C(=O)O; Trp(7-CN) = N#Cc1cccc2c(C[C@H](N)C(=O)O)c[nH]c12; Trp(7-Cl) = N[C@@H](Cc1c[nH]c2c(Cl)cccc12)C(=O)O; Phe(3-CONH2) = NC(=O)c1cccc(C[C@H](N)C(=O)O)c1; Phe(4-CONH2) = NC(=O)c1ccc(C[C@H](N)C(=O)O)cc1; Phe(4-COOH) = N[C@@H](Cc1ccc(C(=O)O)cc1)C(=O)O; Trp(7-aza) = N[C@@H](Cc1c[nH]c2ncccc12)C(=O)O; Phe(4-CH2NH2) = NCc1ccc(C[C@H](N)C(=O)O)cc1; dPro(cis-4-NH2) = N[C@H]1CN[C@@H](C(=O)O)C1; Pip(5R-OH) = O=C(O)[C@@H]1CC[C@@H](O)CN1; αMeW = C[C@](N)(Cc1c[nH]c2ccccc12)C(=O)O; X1 = O=C([C@@H]1CC[C@H](N[*:1])C1)[*:2]; Pip(4-aza) = O=C(O)[C@@H]1CNCCN1; 4Pal = N[C@@H](Cc1ccncc1)C(=O)O; NMeE = CN[C@@H](CCC(=O)O)C(=O)O; dHyp = O=C(O)[C@H]1C[C@H](O)CN1; Cit = NC(=O)NCCC[C@H](N)C(=O)O; Ahp(2) = CCCCC[C@H](N)C(=O)O; NMeS = CN[C@@H](CO)C(=O)O; Pip = O=C(O)[C@@H]1CCCCN1; αMeS = C[C@](N)(CO)C(=O)O; Nle = CCCC[C@H](N)C(=O)O; Sar = CNCC(=O)O
What was measured:
[1] = biological target: T1, TNFα-induced NF-κB signal transduction pathway (TNFR1 signaling) in THP-1 cells (Homo sapiens, UniProt P19438); experiment: THP-1 Lucia NF-κB reporter cell assay, inhibition of TNFα-induced NF-κB signaling; format: cell-based; details: THP-1 NF-κB Lucia reporter cells, 10 ng/mL TNFα, 16-18 h, secreted luciferase; read-out: THP-1 IC50
T1 sequence (P19438 30-455): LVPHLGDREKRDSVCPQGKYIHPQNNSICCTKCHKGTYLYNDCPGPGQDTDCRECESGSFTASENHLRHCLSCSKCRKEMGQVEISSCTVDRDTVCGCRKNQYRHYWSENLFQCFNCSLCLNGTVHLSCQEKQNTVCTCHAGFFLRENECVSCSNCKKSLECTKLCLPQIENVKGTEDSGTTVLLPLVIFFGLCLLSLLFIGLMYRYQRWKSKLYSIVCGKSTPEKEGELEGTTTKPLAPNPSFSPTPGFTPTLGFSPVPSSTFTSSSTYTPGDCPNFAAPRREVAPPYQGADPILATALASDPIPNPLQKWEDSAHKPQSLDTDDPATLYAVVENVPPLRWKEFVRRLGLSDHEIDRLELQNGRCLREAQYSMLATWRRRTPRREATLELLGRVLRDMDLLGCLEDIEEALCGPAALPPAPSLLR
Outline: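 Inhibition of TNFR1-driven NF-κB activation was measured as luminescence of secreted reporter luciferase following overnight (16-18 h) stimulation with 10 ng/mL TNFα.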

human TNFR2 ECD protein = biological target: T2, human TNFR2 ECD protein (Homo sapiens, UniProt P20333); experiment: SPR off-target binding (selectivity) to human TNFR2 ECD
T2 construct: HRV 3C protease cleavage site (C); 6His (C, cleaved yes); made in house; host or cells: Sf21 insect cells (baculovirus), secreted
T2 sequence (P20333 23-257): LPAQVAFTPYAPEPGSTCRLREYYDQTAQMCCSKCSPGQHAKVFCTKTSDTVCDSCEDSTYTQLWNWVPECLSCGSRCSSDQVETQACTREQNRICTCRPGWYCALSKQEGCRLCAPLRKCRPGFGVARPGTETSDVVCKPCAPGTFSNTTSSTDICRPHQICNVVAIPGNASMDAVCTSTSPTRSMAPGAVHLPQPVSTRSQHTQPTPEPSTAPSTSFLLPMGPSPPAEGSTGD
Outline: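 Peptides are tested against captured biotin-tagged human TNFR1 ECD, with parallel TNFR2 ECD binding to check selectivity. Buffer: 10 mM HEPES pH 7.4, 150 mM NaCl, 3 mM EDTA, 0.05% P20, 2% DMSO.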

CCCC[C@@H]1NC(=O)[C@@H]2CC[C@@H](C2)NC(=O)[C@H]([C@@H](C)c2c[nH]c3c(OC)cccc23)NC(=O)CN(C)C(=O)[C@H](Cc2ccc(C(N)=O)cc2)NC(=O)[C@H](Cc2ccc(C(N)=O)cc2)NC(=O)[C@](C)(CO)NC(=O)[C@H](Cc2c[nH]c3c(Cl)cccc23)NC(=O)[C@H](Cc2ccncc2)NC(=O)[C@H](CC(N)=O)NC(=O)[C@H](CCC(=O)O)N(C)C(=O)[C@H](Cc2c[nH]c3ncccc23)NC(=O)[C@@H]2CC[C@@H](O)CN2C(=O)[C@H](Cc2ccncc2)NC1=O [SEQ ID NO. 189] (cyclo([4Pal][Trp(7-Cl)][αMeS][Phe(4-CONH2)][Phe(4-CONH2)][Sar][Trp(βS-Me,7-OMe)][X1][Nle][4Pal][Pip(5R-OH)][Trp(7-aza)][NMeE]N))
IC50 [1]: 0.6 nM | Kd (human TNFR2 ECD protein): > 1000 nM

CCCCC[C@@H]1NC(=O)[C@@H]2CC[C@@H](C2)NC(=O)[C@H]([C@@H](C)c2c[nH]c3c(OC)cccc23)NC(=O)CN(C)C(=O)[C@H](Cc2ccc(OC)cc2)NC(=O)[C@H](Cc2ccc(C(N)=O)cc2)NC(=O)[C@](C)(CO)NC(=O)[C@H](Cc2c[nH]c3c(C#N)cccc23)NC(=O)[C@H](Cc2ccncc2)NC(=O)[C@H](CC(N)=O)NC(=O)[C@H]2C[C@H](O)CN2C(=O)[C@H](Cc2c[nH]c3ccccc23)NC(=O)[C@@H]2CNCCN2C(=O)[C@H](Cc2ccncc2)NC1=O [SEQ ID NO. 200] (cyclo([4Pal][Trp(7-CN)][αMeS][Phe(4-CONH2)]Y(Me)[Sar][Trp(βS-Me,7-OMe)][X1][Ahp(2)][4Pal][Pip(4-aza)]W[dHyp]N))
IC50 [1]: 1 nM | Kd (human TNFR2 ECD protein): > 1000 nM

CCCC[C@@H]1NC(=O)CSC[C@@H](C(N)=O)NC(=O)[C@H]([C@@H](C)c2c[nH]c3c(OC)cccc23)NC(=O)CN(C)C(=O)[C@H](Cc2ccc(O)cc2)NC(=O)[C@H](Cc2ccc(C(=O)O)cc2)NC(=O)[C@](C)(CO)NC(=O)[C@H](Cc2c[nH]c3c(Cl)cccc23)NC(=O)[C@H](Cc2ccncc2)NC(=O)[C@H](CC(N)=O)NC(=O)[C@H]2CCCN2C(=O)[C@H](Cc2c[nH]c3ccccc23)NC(=O)[C@@H]2CC[C@@H](O)CN2C(=O)[C@H](Cc2ccncc2)NC1=O [SEQ ID NO. 203] ({CH2CO}-[Nle][4Pal][Pip(5R-OH)]W[dP]N[4Pal][Trp(7-Cl)][αMeS][Phe(4-COOH)]Y[Sar][Trp(βS-Me,7-OMe)]C-NH2; thioether N-14)
IC50 [1]: 1.6 nM | Kd (human TNFR2 ECD protein): > 1000 nM

CCCC[C@@H]1NC(=O)CSC[C@@H](C(N)=O)NC(=O)[C@](C)(Cc2c[nH]c3ccccc23)NC(=O)CN(C)C(=O)[C@H](Cc2ccc(O)cc2)NC(=O)[C@H](Cc2cccc(C(N)=O)c2)NC(=O)[C@](C)(CO)NC(=O)[C@H](Cc2c[nH]c3c(Cl)cccc23)NC(=O)[C@H](Cc2ccncc2)NC(=O)[C@H](CC(N)=O)NC(=O)[C@H](CCC(=O)O)N(C)C(=O)[C@H](Cc2c[nH]c3ncccc23)NC(=O)[C@H](CO)NC(=O)[C@H](Cc2ccc(CN)cc2)NC1=O [SEQ ID NO. 205] ({CH2CO}-[Nle][Phe(4-CH2NH2)]S[Trp(7-aza)][NMeE]N[4Pal][Trp(7-Cl)][αMeS][Phe(3-CONH2)]Y[Sar][αMeW]C-NH2; thioether N-14)
IC50 [1]: 7.2 nM | Kd (human TNFR2 ECD protein): > 1000 nM

CCCC[C@@H]1NC(=O)CSC[C@@H](C(N)=O)NC(=O)[C@H]([C@@H](C)c2c[nH]c3cccc(OC)c23)NC(=O)CN(C)C(=O)[C@H](Cc2ccc(O)cc2)NC(=O)[C@H](Cc2ccc(C(N)=O)cc2)NC(=O)[C@](C)(CO)NC(=O)[C@H](Cc2c[nH]c3c(Cl)cccc23)NC(=O)[C@H](Cc2ccc(C(=O)O)cc2)NC(=O)[C@H](CC(N)=O)NC(=O)[C@H](CCC(=O)O)N(C)C(=O)[C@H](Cc2c[nH]c3ncccc23)NC(=O)[C@H](CO)N(C)C(=O)[C@H](Cc2ccncc2)NC1=O [SEQ ID NO. 209] ({CH2CO}-[Nle][4Pal][NMeS][Trp(7-aza)][NMeE]N[Phe(4-COOH)][Trp(7-Cl)][αMeS][Phe(4-CONH2)]Y[Sar][X5]C-NH2; thioether N-14)
IC50 [1]: 2.7 nM | Kd (human TNFR2 ECD protein): > 1000 nM

CCCC[C@@H]1NC(=O)CSC[C@@H](C(N)=O)NC(=O)[C@H]([C@@H](C)c2c[nH]c3c(OC)cccc23)NC(=O)CN(C)C(=O)[C@H](Cc2ccc(O)cc2)NC(=O)[C@H](Cc2ccc(C(=O)O)cc2)NC(=O)[C@](C)(CO)NC(=O)[C@H](Cc2c[nH]c3c(Cl)cccc23)NC(=O)[C@H](Cc2ccc(CC(=O)O)cc2)NC(=O)[C@H](CC(N)=O)NC(=O)[C@H](CCC(=O)O)N(C)C(=O)[C@H](Cc2c[nH]c3ccccc23)NC(=O)[C@@H]2CCCCN2C(=O)[C@H](Cc2ccncc2)NC1=O [SEQ ID NO. 212] ({CH2CO}-[Nle][4Pal][Pip]W[NMeE]N[Phe(4-CH2COOH)][Trp(7-Cl)][αMeS][Phe(4-COOH)]Y[Sar][Trp(βS-Me,7-OMe)]C-NH2; thioether N-14)
IC50 [1]: 2.8 nM | Kd (human TNFR2 ECD protein): > 1000 nM

C[C@@H](c1c[nH]c2ccccc12)[C@@H]1NC(=O)CN(C)C(=O)[C@H](Cc2c[nH]cn2)NC(=O)[C@H](Cc2ccc(C(=O)O)cc2)NC(=O)[C@](C)(CO)NC(=O)[C@H](Cc2c[nH]c3c(Cl)cccc23)NC(=O)[C@H](Cc2ccc(C(=O)O)cc2)NC(=O)[C@H](CC(N)=O)NC(=O)[C@H]2CCCN2C(=O)[C@H]([C@@H](C)c2c[nH]c3ccccc23)NC(=O)[C@H](CO)NC(=O)[C@H](Cc2ccc(CN)cc2)NC(=O)[C@H](CCCNC(N)=O)NC(=O)CSC[C@@H](C(N)=O)NC1=O [SEQ ID NO. 215] ({CH2CO}-[Cit][Phe(4-CH2NH2)]S[Trp(βS-Me)][dP]N[Phe(4-COOH)][Trp(7-Cl)][αMeS][Phe(4-COOH)]H[Sar][Trp(βS-Me)]C-NH2; thioether N-14)
IC50 [1]: 9.7 nM | Kd (human TNFR2 ECD protein): > 1000 nM

CCCC[C@@H]1NC(=O)CSC[C@@H](C(N)=O)NC(=O)[C@H]([C@@H](C)c2c[nH]c3c(OC)cccc23)NC(=O)CN(C)C(=O)[C@H](Cc2ccc(O)cc2)NC(=O)[C@H](Cc2ccc(C(=O)O)cc2)NC(=O)[C@](C)(CO)NC(=O)[C@H](Cc2c[nH]c3c(Cl)cccc23)NC(=O)[C@H](Cc2ccc(OC)cc2)NC(=O)[C@H](CC(N)=O)NC(=O)[C@H](CCC(=O)O)N(C)C(=O)[C@H](Cc2c[nH]c3ccccc23)NC(=O)[C@@H]2CNCCN2C(=O)[C@H](Cc2ccncc2)NC1=O [SEQ ID NO. 218] ({CH2CO}-[Nle][4Pal][Pip(4-aza)]W[NMeE]NY(Me)[Trp(7-Cl)][αMeS][Phe(4-COOH)]Y[Sar][Trp(βS-Me,7-OMe)]C-NH2; thioether N-14)
IC50 [1]: 3.4 nM | Kd (human TNFR2 ECD protein): > 1000 nM

CCCC[C@@H]1NC(=O)CSC[C@@H](C(N)=O)NC(=O)[C@H]([C@@H](C)c2c[nH]c3c(OC)cccc23)NC(=O)CN(C)C(=O)[C@H](Cc2ccc(O)cc2)NC(=O)[C@H](Cc2ccc(C(N)=O)cc2)NC(=O)[C@](C)(CO)NC(=O)[C@H](Cc2c[nH]c3c(Cl)cccc23)NC(=O)[C@H](Cc2ccncc2)NC(=O)[C@H](CC(N)=O)NC(=O)[C@H]2C[C@@H](N)CN2C(=O)[C@H](Cc2c[nH]c3ncccc23)NC(=O)[C@@H]2CNCCN2C(=O)[C@H](Cc2ccncc2)NC1=O [SEQ ID NO. 219] ({CH2CO}-[Nle][4Pal][Pip(4-aza)][Trp(7-aza)][dPro(cis-4-NH2)]N[4Pal][Trp(7-Cl)][αMeS][Phe(4-CONH2)]Y[Sar][Trp(βS-Me,7-OMe)]C-NH2; thioether N-14)
IC50 [1]: 1.6 nM | Kd (human TNFR2 ECD protein): > 1000 nM

— patent US20240287138A1, “CYCLIC PEPTIDES FOR INHIBITING TNF RECEPTOR 1 ACTIVITY” (Merck Sharp & Dohme LLC, priority 2023, published 2024)
